Reference: ChEMBL document CHEMBL4118148, “Design, synthesis and cardiovascular evaluation of some aminoisopropanoloxy derivatives of xanthone” (Bioorg Med Chem, 2018)
Active and inactive are the calls of the source. The calls are words filed in the database; no cut-off is given here.

Columns and labels:
[1] = molecular target: T1, Adrenergic receptor alpha-1 (Rattus norvegicus, UniProt P15823+P23944+P43140); test: Displacement of [3H][…]prazosin from adrenergic alpha1 receptor in Wistar rat cortex incubated for 30 mins by microbeta liquid scintillation counting analysis
T1 sequence (P15823 whole entry): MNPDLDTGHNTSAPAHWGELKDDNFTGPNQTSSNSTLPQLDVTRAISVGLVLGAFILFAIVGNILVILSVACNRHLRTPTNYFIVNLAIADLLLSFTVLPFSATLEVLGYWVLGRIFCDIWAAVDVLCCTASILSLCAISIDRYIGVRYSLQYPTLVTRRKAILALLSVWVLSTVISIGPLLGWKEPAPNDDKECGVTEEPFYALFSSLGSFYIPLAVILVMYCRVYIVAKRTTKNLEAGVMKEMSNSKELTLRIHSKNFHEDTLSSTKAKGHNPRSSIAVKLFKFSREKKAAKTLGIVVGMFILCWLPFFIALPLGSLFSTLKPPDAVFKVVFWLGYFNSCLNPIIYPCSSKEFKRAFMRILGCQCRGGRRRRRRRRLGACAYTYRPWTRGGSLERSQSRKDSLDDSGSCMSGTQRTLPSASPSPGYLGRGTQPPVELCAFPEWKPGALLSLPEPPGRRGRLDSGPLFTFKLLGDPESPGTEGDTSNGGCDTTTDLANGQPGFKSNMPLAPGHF
T1 sequence (P23944 whole entry): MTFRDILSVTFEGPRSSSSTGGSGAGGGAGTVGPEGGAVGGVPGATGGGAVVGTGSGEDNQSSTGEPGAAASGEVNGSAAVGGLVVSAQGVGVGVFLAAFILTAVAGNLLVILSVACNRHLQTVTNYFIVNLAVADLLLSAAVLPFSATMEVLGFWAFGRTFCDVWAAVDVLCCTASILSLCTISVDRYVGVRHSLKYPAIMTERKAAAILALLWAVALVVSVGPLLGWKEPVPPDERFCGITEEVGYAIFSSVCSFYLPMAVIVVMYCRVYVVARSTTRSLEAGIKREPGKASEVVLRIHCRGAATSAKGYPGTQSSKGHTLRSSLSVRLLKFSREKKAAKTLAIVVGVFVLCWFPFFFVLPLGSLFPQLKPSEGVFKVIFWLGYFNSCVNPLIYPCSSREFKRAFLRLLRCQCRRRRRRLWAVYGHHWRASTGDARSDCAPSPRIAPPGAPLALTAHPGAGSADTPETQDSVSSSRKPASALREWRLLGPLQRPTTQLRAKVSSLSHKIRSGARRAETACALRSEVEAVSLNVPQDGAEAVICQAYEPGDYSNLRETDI
T1 sequence (P43140 whole entry): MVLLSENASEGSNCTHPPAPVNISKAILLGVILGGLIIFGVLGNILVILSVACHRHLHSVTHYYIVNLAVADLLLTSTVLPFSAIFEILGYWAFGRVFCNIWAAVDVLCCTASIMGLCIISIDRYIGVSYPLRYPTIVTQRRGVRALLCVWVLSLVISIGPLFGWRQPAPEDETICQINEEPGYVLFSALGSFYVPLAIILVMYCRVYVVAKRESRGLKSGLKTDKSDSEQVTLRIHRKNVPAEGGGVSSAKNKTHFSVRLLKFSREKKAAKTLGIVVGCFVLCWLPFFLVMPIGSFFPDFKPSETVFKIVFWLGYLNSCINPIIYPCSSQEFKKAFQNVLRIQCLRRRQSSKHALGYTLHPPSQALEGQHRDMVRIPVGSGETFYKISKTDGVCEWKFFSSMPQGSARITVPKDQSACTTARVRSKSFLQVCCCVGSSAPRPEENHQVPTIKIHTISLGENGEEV

[2] = molecular target: T2, Adrenergic receptor alpha-1 (Rattus norvegicus) (UniProt P15823+P23944+P43140); test: Antagonist activity at adrenergic alpha1 receptor in isolated Wistar rat aorta assessed as inhibition of […] contraction incubated for 20 mins
[3] = tested on: Rattus norvegicus; test: Hypotensive activity in normotensive Wistar rat assessed as diastolic blood pressure at 1 mg/kg, iv measured after 5 mins (reference value: 88.4 to 122.7 mmHg); format: functional
[4] = tested on: Rattus norvegicus; test: Hypotensive activity in normotensive Wistar rat assessed as systolic blood pressure at 1 mg/kg, iv measured after 5 mins (reference value: 122.4 to 156.5 mmHg); format: functional
[5] = tested on: Rattus norvegicus; test: Hypotensive activity in normotensive Wistar rat assessed as systolic blood pressure at 1 mg/kg, iv measured after 10 mins (reference value: 122.4 to 156.5 mmHg); format: functional
[6] = tested on: Rattus norvegicus; test: Hypotensive activity in normotensive Wistar rat assessed as diastolic blood pressure at 1 mg/kg, iv measured after 10 mins (reference value: 88.4 to 122.7 mmHg); format: functional
[7] = tested on: Rattus norvegicus; test: Hypotensive activity in normotensive Wistar rat assessed as systolic blood pressure at 1 mg/kg, iv measured after 20 mins (reference value: 122.4 to 156.5 mmHg); format: functional
[8] = tested on: Rattus norvegicus; test: Hypotensive activity in normotensive Wistar rat assessed as diastolic blood pressure at 1 mg/kg, iv measured after 20 mins (reference value: 88.4 to 122.7 mmHg); format: functional
[9] = tested on: Rattus norvegicus; test: Hypotensive activity in normotensive Wistar rat assessed as systolic blood pressure at 1 mg/kg, iv measured after 30 mins (reference value: 122.4 to 156.5 mmHg); format: functional
[10] = tested on: Rattus norvegicus; test: Hypotensive activity in normotensive Wistar rat assessed as diastolic blood pressure at 1 mg/kg, iv measured after 30 mins (reference value: 88.4 to 122.7 mmHg); format: functional
[11] = tested on: Rattus norvegicus; test: Hypotensive activity in normotensive Wistar rat assessed as systolic blood pressure at 1 mg/kg, iv measured after 60 mins (reference value: 122.4 to 156.5 mmHg); format: functional
[12] = tested on: Rattus norvegicus; test: Hypotensive activity in normotensive Wistar rat assessed as diastolic blood pressure at 1 mg/kg, iv measured after 60 mins (reference value: 88.4 to 122.7 mmHg); format: functional
[13] = tested on: Rattus norvegicus; test: Antiarrhythmic activity in Wistar rat assessed as inhibition of adrenaline-induced premature ventricular extrasystoles administered iv 15 mins prior to adrenaline challenge; format: functional
[14] = molecular target: Beta-2 adrenergic receptor (Cavia porcellus, UniProt Q8K4Z4); test: Antagonist activity at adrenergic beta2 receptor in isolated guinea pig trachea assessed as inhibition of isoprenaline-induced bronchodilation incubated for 20 mins; format: functional; conditions: read-out: pA2 (converted)
Beta-2 adrenergic receptor, sequence (Q8K4Z4 whole entry): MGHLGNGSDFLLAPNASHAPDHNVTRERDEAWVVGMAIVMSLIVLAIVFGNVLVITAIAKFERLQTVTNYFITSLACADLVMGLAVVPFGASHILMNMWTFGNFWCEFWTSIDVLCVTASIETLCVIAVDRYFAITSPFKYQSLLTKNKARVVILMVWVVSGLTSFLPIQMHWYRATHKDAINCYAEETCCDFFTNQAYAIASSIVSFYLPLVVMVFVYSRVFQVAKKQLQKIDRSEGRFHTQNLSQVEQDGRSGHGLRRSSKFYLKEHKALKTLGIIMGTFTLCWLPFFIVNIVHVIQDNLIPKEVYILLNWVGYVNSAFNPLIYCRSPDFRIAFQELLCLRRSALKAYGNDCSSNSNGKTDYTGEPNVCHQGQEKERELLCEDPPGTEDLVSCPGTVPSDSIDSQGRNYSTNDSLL

[15] = tested on: Rattus norvegicus; test: In vivo inhibition of beta adrenoceptor in Wistar rat assessed as reduction in isoprenaline-induced tachycardia at 5 mg/kg, iv administered as single dose 10 mins prior to isoprenaline injection; format: functional, organism-based
[16] = tested on: Rattus norvegicus; test: Hypotensive activity in normotensive Wistar rat assessed as reduction in systolic blood pressure at 1 mg/kg, iv measured over 30 mins relative to control; format: functional; parameters: scale not given: the % may be the effect or the level left
[17] = molecular target: T2, Adrenergic receptor alpha-1 (Rattus norvegicus); test: Displacement of [3H][…]prazosin from adrenergic alpha1 receptor in Wistar rat cortex at 10^-5 M incubated for 30 mins by microbeta liquid scintillation counting analysis
[18] = tested on: Rattus norvegicus; test: Cardiotoxicity in Wistar rat assessed as effect on PQ interval time at 1 mg/kg, iv measured after 1 min (reference value: 56.8 +/- 1.8 ms); format: toxicity, organism-based; conditions: in vivo
[19] = tested on: Blood; test: Anti-aggregative activity in Wistar rat whole blood assessed as inhibition of collagen/adrenaline-induced aggregation preincubated for 3 mins followed by collagen induction measured for 6 mins; format: functional, tissue-based

SMILES | IC50 [1] [nM] | pKb [2] | Activity [3] [mmHg] | Activity [4] [mmHg] | Activity [5] [mmHg] | Activity [6] [mmHg] | Activity [7] [mmHg] | Activity [8] [mmHg] | Activity [9] [mmHg] | Activity [10] [mmHg] | Activity [11] [mmHg] | Activity [12] [mmHg] | ED50 [13] [mg/kg] | Ki [1] [nM] | Kb [14] [nM] | inhibition [15] | further results
Cl.O=c1c2ccccc2oc2cc(OCC(O)CN3CCN(c4ccccn4)CC3)ccc12 (racemic) | 355.6 | 8.2 | 107.5 | 138.3 | 136 | 107 | 131 | 103.8 | 127.2 | 100.2 | 122.7 | 94.2 |  |  |  |  | 
Cl.O=c1c2ccccc2oc2c(OCC(O)CN3CCN(c4ccccn4)CC3)cccc12 (racemic) | 171 | 7.52 | 111.7 | 146.2 | 146.2 | 113.5 | 142.5 | 133 | 140 | 110.5 | 138.7 | 106.7 | 4.82 |  |  |  | 
COc1ccccc1OCCNCC(O)COc1cccc2c(=O)c3ccccc3oc12.Cl (racemic) | 109.5 | 8.34 | 85.4 | 119.6 | 114.8 | 82.8 | 114.8 | 84 | 112.4 | 81.6 | 106.8 | 75.6 |  | 875.5 | 18.1 | Active | Activity [16]: 6 - 13%
COc1ccccc1CNCC(O)COc1cccc2c(=O)c3ccccc3oc12.Cl (racemic) | 1870 |  |  |  |  |  |  |  |  |  |  |  |  |  | 114 | Active | 
COc1ccc(CCNCC(O)COc2cccc3c(=O)c4ccccc4oc23)cc1OC.Cl (racemic) |  |  |  |  |  |  |  |  |  |  |  |  |  | 274 | 41.4 | Active | Activity [17]: inactive
CC(C)(C)NCC(O)COc1cccc2c(=O)c3ccccc3oc12.Cl (racemic) |  |  | 111 | 146.4 | 142.6 | 109.5 | 131.6 | 103.7 | 128.2 | 100 | 123 | 96.7 | 1.63 | 814 | 0.31 |  | Activity [17]: inactive; Time [18]: 57.6 ms; IC50 [19]: 82300 nM; inhibition [19]: Dose-dependent effect
COc1ccccc1CCNCC(O)COc1cccc2c(=O)c3ccccc3oc12.Cl (racemic) | 349.8 | 8.28 | 114.8 | 147.8 | 147 | 114.2 | 141 | 111.5 | 135 | 107.7 | 126.3 | 101.2 | 2.2 | 4676 | 21.4 | Active | Activity [16]: 5 - 11%; IC50 [19]: 44800 nM; inhibition [19]: Dose-dependent effect
